ChEMBL document CHEMBL3271972, “Potentiation of the estrogenic activity of stilbestrol by spiro (cyclohexane-1,2'-indan)-1',4-dione” (1976)

Assays:
Type in all cases: functional
[1] = test system: Mus musculus; assay: Potentiation of stilbestrol-induced estrogenic activity in albino ICI mouse assessed as body […] ratio at 0.1 ug, sc qd for 3 days (reference value: 232.2 +/- 10.4)
[2] = test system: Mus musculus; assay: Estrogenic activity in albino ICI mouse assessed as body […] ratio at 100 ug, sc qd for 3 days (reference value: 232.2 +/- 10.4)
[3] = test system: Mus musculus; assay: Potentiation of stilbestrol-induced estrogenic activity in albino ICI mouse assessed as uterus weight at 100 ug, sc qd for 3 days (reference value: 28 +/- 2 mg)
[4] = test system: Mus musculus; assay: Potentiation of stilbestrol-induced estrogenic activity in albino ICI mouse assessed as uterus weight at 0.1 ug, sc qd for 3 days (reference value: 28 +/- 2 mg)
[5] = test system: Mus musculus; assay: Potentiation of stilbestrol-induced estrogenic activity in albino ICI mouse assessed as body weight at 0.1 ug, sc qd for 3 days (reference value: 12.1 +/- 0.7 gram)
[6] = test system: Mus musculus; assay: Estrogenic activity in albino ICI mouse assessed as body weight at 0.1 ug, sc qd for 3 days (reference value: 12.1 +/- 0.7 gram)
[7] = test system: Mus musculus; assay: Estrogenic activity in albino ICI mouse assessed as body weight at 100 ug, sc qd for 3 days (reference value: 12.1 +/- 0.7 gram)
[8] = test system: Mus musculus; assay: Potentiation of stilbestrol-induced estrogenic activity in albino ICI mouse assessed as body weight at 100 ug, sc qd for 3 days (reference value: 12.1 +/- 0.7 gram)
[9] = test system: Mus musculus; assay: Potentiation of stilbestrol-induced estrogenic activity in albino ICI mouse assessed as body […] ratio at 100 ug, sc qd for 3 days (reference value: 232.2 +/- 10.4)
[10] = test system: Mus musculus; assay: Estrogenic activity in albino ICI mouse assessed as body […] ratio at 0.1 ug, sc qd for 3 days (reference value: 232.2 +/- 10.4)
[11] = test system: Mus musculus; assay: Estrogenic activity in albino ICI mouse assessed as uterus weight at 0.1 ug, sc qd for 3 days (reference value: 28 +/- 2 mg)
[12] = test system: Mus musculus; assay: Estrogenic activity in albino ICI mouse assessed as uterus weight at 100 ug, sc qd for 3 days (reference value: 28 +/- 2 mg)

Row | Structure (SMILES) | Ratio [1] | Ratio [2] | Activity [3] | Activity [4] | Activity [5] | Activity [6] | Activity [7] | Activity [8] | Ratio [9] | Ratio [10] | Activity [11] | Activity [12]
1 | O=C1CCC2(CC1)Cc1ccccc1C2=O | 957.1 | 212.7 | 192.3 mg | 145 mg | 15.2 g | 14.1 g | 13.3 g | 14.1 g | 1366.9 | 252 | 35.5 mg | 28.3 mg
2 | CC/C(=C(/CC)c1ccc(O)cc1)c1ccc(O)cc1 [DIETHYLSTILBESTROL] | – | – | – | – | – | 16.8 g | – | – | – | 882 | 148 mg | –
